Data as given in US20230225991A1, “COMPOUNDS FOR USE IN THE TREATMENT OF ACUTE INTERMITTENT PORPHYRIA” (VESTLANDETS INNOVASJONSSELSKAP AS, priority 2019, published 2023).

Legend:
[1] = biological target: T1, WT-HMBS (Homo sapiens, UniProt P08397); assay: Enzymatic activity assay of recombinant HMBS, standard conditions; format: biochemical; conditions: 100 μM PBG at 37° C., 84 μM compound, 2% DMSO; relative to DMSO control
T1 construct: Full-length HMBS was cloned into pET-28a(+)-TEV vector and transformed into BL21 (DE3) cells for expression; 6xHis (N, cleaved yes); TEV protease cleavage site (N, cleaved yes); made in house; host or cells: E. coli BL21 (DE3)
T1 sequence (P08397 1-361): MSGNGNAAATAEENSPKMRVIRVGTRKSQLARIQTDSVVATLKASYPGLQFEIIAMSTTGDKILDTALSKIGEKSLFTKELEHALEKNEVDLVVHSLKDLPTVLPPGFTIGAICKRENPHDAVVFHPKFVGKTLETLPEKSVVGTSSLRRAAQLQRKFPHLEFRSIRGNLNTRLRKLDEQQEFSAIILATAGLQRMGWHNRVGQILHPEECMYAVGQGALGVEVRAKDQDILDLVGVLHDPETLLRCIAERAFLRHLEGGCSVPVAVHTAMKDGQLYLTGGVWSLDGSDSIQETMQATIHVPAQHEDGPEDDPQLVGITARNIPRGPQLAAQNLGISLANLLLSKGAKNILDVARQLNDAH
Experimental: The standard enzymatic activity of recombinant WT-HMBS was assayed at 37° C. as reported previously (Bustad et al., Bioscience reports, 2013; 33(4)). Compounds were added at a concentration of 84 μM. Absorbance of uroporphyrinogen I was determined at 405 nm. The enzyme activity in the presence of the compounds was normalized relative to DMSO-control (relative activity).
An enzymatic assay was performed to investigate the effect of compound BG-1 on the activity and conformational stability of HMBS. HMBS activity of the purified enzyme was measured in the absence and presence of compound BG-1 (at 84 μM) at standard conditions (37° C.) but also after pre-incubation at 70° C. for 20 min based on the high thermal stability of WT-HMBS.

[2] = test system: Hmbs-deficient T1/T2−/− mice; assay: Mouse trial T1/T2-B, phenobarbital-induced biochemical acute attack; format: in vivo; conditions: 20 mg/kg/day, 12 days; for Hepatic HMBS enzyme activity in liver homogenates: compared with control group; for Urinary ALA and PBG excretion: versus control group; for Increase in steady-state levels of HMBS in liver tissue: quantitative western immunoblotting
Experimental: The crude liver homogenates were passed through Zeba spin desalting columns (Thermo Fisher Scientific) to remove small molecules <2000 Da. 50 mM HEPES pH 8.2 was used as equilibration buffer. 25 μl filtrated homogenate (400-500 μg total protein) was added to 110 μl sample mix (50 mM HEPES, pH 8.2, 1% Triton™ X-100) and incubated for 10 min at 37° C. before adding PBG (1 mM). The reaction was stopped after 1 h by adding ice-cooled 100% TCA to a final concentration of 25%, incubated at room temperature (RT) for 10 min and centrifuged at 10,000 g for 10 min. The absorption was measured in the supernatant at A409 with baseline correction at A380 using NanoDrop™ 2000c spectrophotometer (Thermo Fisher Scientific). The activity of HMBS was expressed as relative activity in the compound-treated […] compared to DMSO-controls. A blank sample was prepared for each homogenate. The unpaired t-test (two tailed) was performed using GraphPad Prism.
Liver homogenates (5 μg total protein/lane) were loaded onto 10% Mini-Protean® TGX™ gels (Bio-Rad) and separated with Tris/Glycine/SDS electrophoresis buffer (Bio-Rad). Trans-Blot® Turbo™ Transfer Starter System (Bio-Rad) was used to transfer the proteins onto Immun-Blot® low fluorescence PVDF membranes (Bio-Rad). The membranes were then blocked with TBS containing 1% Tween® 20 (1% TBS-T) and 3% BSA for 1 h. HMBS was probed with 1:2,000 monoclonal mouse anti-HMBS (H-11, Santa Cruz Biotechnology), together with 1:1,000 rabbit anti-actin (Sigma-Aldrich), in 1% TBS-T, 3% BSA overnight, 4° C. Alexa Fluor 647 conjugated donkey-anti-mouse and Alexa Fluor 488 conjugated donkey-anti-rabbit (both Thermo Fisher Scientific) were used as secondary antibodies and incubated in 1:1,000 dilutions in 0.1% TBS-T for 1 h. Each step was followed by extensive wash with 0.1% TBS-T. Fluorescence detection was performed using G-Box Chemi-XRQ (Syngene Synoptics, Cambridge, UK) with filters UV06 and 705 nm for AF-488 and AF-647, respectively, and the band intensities of HMBS relative to the loading control (actin) were determined using ImageJ (Schneider et al., Nature methods 2012; 9(7): 671-5).

O=Cc1cc(Cc2ccccc2Cl)cc([N+](=O)[O-])c1O [BG-1] was tested, and the “Relative activity, standard” value [1] was 0.98 ± 0.06, the “Hepatic HMBS enzyme activity in liver homogenates” value [2] was “significantly increased enzyme activity” and the “Urinary ALA and PBG excretion” value [2] was “reduced”. For the same compound, the “Relative concentration of ALA in liver” value ([2]; p<0.05 compared with control mice) was “decreased”, the “Relative concentration of PBG in liver” value ([2]; p=0.053 compared with control mice) was “decreased” and the “Increase in steady-state levels of HMBS in liver tissue” value [2] was 2 fold.

For O=C(c1ccccc1)c1ccc(Cl)c([N+](=O)[O-])c1 [BG-2], the “Hepatic HMBS enzyme activity in liver homogenates” value [2] was “significantly increased enzyme activity”, the “Urinary ALA and PBG excretion” value [2] was “reduced” and the “Increase in steady-state levels of HMBS in liver tissue” value [2] was 2 fold.
